Data published in US20250255876A1, “COMPOSITIONS AND METHODS FOR CANCER TREATMENT” (ARIEL SCIENTIFIC INNOVATIONS LTD., priority 2021, published 2025).
Entries after “also recorded” stand apart in the source; their conditions may differ.

Columns and labels:
B16F10 cells [1] = assay: Colony survival assay, B16F10 cells; assay type: cell-based, mouse
Description: (14B) Colony survival assay of H1975 cell line. (14C) Colony survival assay of A549 cell line. (14D) Colony survival assay of B16F10 cell line. All cell lines were treated with 50 μM c #3 and the indicated concentration of cisplatin for 48 h, then growth media was replaced with normal growth media with no compound. Cells were allowed to recover 4-5 days before staining. For all cell lines, colony survival assay n=3 independent experiments, SD=1. P value was calculated by two-way ANOVA multiple comparison. IC50 was calculated using linear regression for H1975 and A549, and sigmoidal regression for B16F10.
Colony survival assay to compare the relative survival rate of cells treated with cisplatin alone, or with combined treatment of cisplatin and 50 μM of compound 3 (see FIG. 1). Molecule presented preliminary promising results, We tested compound 3 (c #3) on different cancer cell lines: two lung cancer cell lines, (1) human non-small cell lung carcinoma H1975 cells, (2) epithelial lung adenocarcinoma A549 cells, and (3) mouse aggressive melanoma B16F10 cells.

MAD2L2-Rev1 complex = MAD2L2-Rev1 complex (Homo sapiens, UniProt Q9UI95); assay: Proximity ligation assay (PLA) of MAD2L2-Rev1 binding; assay type: cell-based
Description: FIG. 16 is a bar graph showing that c #3 reduces Rev1-MAD2L2 interaction. PLA on cells treated with 10 μM cisplatin and 100 μM of c #3 for 24 h. In each analyzed field, cells and foci were counted separately and the ratio of foci/cell was calculated. Each dot represents the average of foci/cell in one analyzed field. SD=1. The P-value was calculated by a one-tailed t-test.
#3 disturbs MAD2L2-Rev1 complex formation. Detection of MAD2L2-Rev1 binding using the proximity ligation assay (PLA), which allows endogenous detection of protein-protein interactions. To enrich for MAD2L2-Rev1 foci, cells were co-treated with 10 μM cisplatin and 100 μM c #3 for 24h. Next, the PLA reaction was performed and foci, representing the MAD2L2-Rev1 complex, were counted.

B16F10 cells [2] = assay: B16F10 subcutaneous tumor in C57BL mice, intratumoral injection; assay type: in vivo, mouse
Description: FIGS. 17A-17E are micrographs and graphs showing that C#3 prevents tumor growth. 2*106 B16F10 cells were injected to the left flank of C57BL mice. After three days different treatments, as indicated, were injected to the newly formed tumor. (17A) tumor size (mm3) was measured daily for each mouse. In the co-treatment, almost no change in tumor size was observed, in the first three days. (17B) representative images of three tumors from each treatment group. (17C) For each treatment the fold-change in the volume of each day was compared to day 0. […] (17D) The co-treated group presented less developed tumors, which comprised about 2-3% of mice weight. (17E) H&E staining of a representative tumor from each group. Number of mice for each group in this experiment: DMSO n=7, cisplatin n=10, cisplatin+c #3 n=10, c #3 n=9. SD=1. P-values were calculated by one-tailed t-test. C#3 prevents tumor growth. To test the effect of c #3 in-vivo, we used a […] mouse model of C57BL mice. B16F10 cells were injected to the mouse's left flank and allowed to form a subcutaneous tumor. Next, we injected directly to the tumor DMSO, cisplatin, cisplatin+c #3 1 mg/kg, or c #3 alone, and tumor size was measured each day, up to 6 days. […] DNA damage burden in these fast-growing tumors is high, and TLS inhibition using c #3 prevents repair and enhances cell death. […]

MAD2L2 = MAD2L2 (Homo sapiens, UniProt Q9UI95); assay: Field Effect Biosensing (FEB) binding assay; design: made in house; host or cells: E. coli BL21 Star
Description: E. coli BL21 Star cells were transfected with GST-MAD2L2 vector. Protein induction was done for 4 hours in 30° C., with 1 mM IPTG. Purification was done according to standard GST protocol.
The binding kinetics of MAD2L2 to the small molecule compounds were measured by the Field Effect Biosensing (FEB) Agile R100 label-free binding assay (Nanomedical Diagnostics Inc), following their standard protocol. Briefly, 500 nM of purified MAD2L2 was immobilized on a graphene sensor chip through amine groups. The current baseline level for the chip was recorded in PBS. Next, PBS was aspirated, and the changes in the baseline current induced by 50 μl of 1, 10, 20, 30, 40 and 50 μM droplets of the tested compound were recorded. KD values were calculated by the DataLine 2.0 software by either a Hill equation fit or by using the kon and koff values at a single concentration. The KD values obtained by these two methods were almost identical.
In order to validate that MAD2L2 is a direct target of c #2 and c #3, the inventors tested the compounds' binding kinetics to a recombinant protein by Field Effect Biosensing (FEB) technology. Briefly, purified GST-MAD2L2 was immobilized onto a graphite chip, and the current across the chip is measured to determine the baseline current. […] The Kon and Koff of the interaction were measured over time and were used to calculate the KD. […]

MAD2L2, sequence (Q9UI95 whole entry): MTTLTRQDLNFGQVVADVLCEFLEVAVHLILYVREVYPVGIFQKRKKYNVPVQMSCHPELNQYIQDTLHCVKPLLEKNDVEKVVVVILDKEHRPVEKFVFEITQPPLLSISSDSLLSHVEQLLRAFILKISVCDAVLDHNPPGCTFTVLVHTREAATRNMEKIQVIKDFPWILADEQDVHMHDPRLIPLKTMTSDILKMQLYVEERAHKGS
MAD2L2-Rev1 complex, sequence (Q9UI95 whole entry, one chain of several): as the sequence (Q9UI95 whole entry) above

For `Cc1oc(-c2ccco2)nc1CC(=O)N[C@@H](C(=O)O)c1ccccc1` [Compound 3], the “toxicity, compound alone” value (B16F10 cells [1]; B16F10, 50 μM compound alone) was “caused no toxicity”, the sensitization to cisplatin (B16F10 cells [1]; B16F10, cisplatin + 50 μM c #3, 48 h) was “sensitization to cisplatin treatment” and the “ratio of MAD2L2-Rev1 PLA foci per cell, co-treatment” value (MAD2L2-Rev1 complex; 10 μM cisplatin + 100 μM c #3, 24 h, compared to cisplatin alone) was “reduced ratio of foci per cell”. For the same compound, the “MAD2L2-Rev1 complex formation (PLA), c #3 alone” value (MAD2L2-Rev1 complex; c #3 alone compared to DMSO) was “no effect on complex formation when DNA-damage is not induced”, the “tumor growth (tumor volume, fold-change), co-treatment” value (B16F10 cells [2]; cisplatin 1 mg/kg + c #3 1 mg/kg injected into the tumor, listed as c #3) was “prevented tumor growth in the first three days; also recorded: significant growth inhibition when compared to all treatments” and the “tumor histopathology (H&E), co-treatment” value (B16F10 cells [2]; cisplatin + c #3 co-treated, two tumors from each group) was “severe necrosis”. For the same compound, the “affinity to MAD2L2 compared with c #2” value (MAD2L2; from FEB KD values, listed as c #3) was “approximately seven-fold higher; also recorded: sevenfold higher” and the Kd (MAD2L2; purified GST-MAD2L2 immobilized on chip, 1-50 μM compound) was 44.9 µM.
